PubChem BioAssay (NCI)
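96-well plates; 48 h exposure; 5 concentrations. Endpoints by linear interpolation between flanking doses. Not reached: highest tested concentration assigned. TGI denotes the concentration required for complete inhibition of growth.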

Key:
Test in all cases: inhibition of tumour cell growth, NCI panel, 48 h
[1] = system: 786-0 renal
[2] = system: A498 renal
[3] = system: A549 NSCLC
[4] = system: ACHN renal
[5] = system: CAKI-1 renal
[6] = system: CCRF-CEM leukemia
[7] = system: COLO 205 colon
[8] = system: DU-145 prostate
[9] = system: EKVX NSCLC
[10] = system: HCC-2998 colon
[11] = system: HCT-116 colon
[12] = system: HCT-15 colon
[13] = system: HL-60(TB) leukemia
[14] = system: HOP-62 NSCLC
[15] = system: HS 578T breast
[16] = system: HT29 colon
[17] = system: IGROV1 ovarian
[18] = system: K-562 leukemia
[19] = system: KM12 colon
[20] = system: LOX IMVI melanoma
[21] = system: M14 melanoma
[22] = system: MALME-3M melanoma
[23] = system: MCF7 breast
[24] = system: MDA-MB-231 breast
[25] = system: MDA-MB-435
[26] = system: MDA-N
[27] = system: MOLT-4 leukemia
[28] = system: NCI-H226 lung
[29] = system: NCI-H23 lung
[30] = system: NCI-H460 lung
[31] = system: NCI-H522 lung
[32] = system: NCI/ADR-RES ovarian
[33] = system: OVCAR-4 ovarian
[34] = system: OVCAR-5 ovarian
[35] = system: OVCAR-8 ovarian
[36] = system: PC-3 prostate
[37] = system: RPMI-8226 leukemia
[38] = system: RXF 393 renal
[39] = system: SF-268 CNS
[40] = system: SF-295 CNS
[41] = system: SF-539 CNS
[42] = system: SK-MEL-2 melanoma
[43] = system: SK-MEL-28 melanoma
[44] = system: SK-MEL-5 melanoma
[45] = system: SK-OV-3 ovarian
[46] = system: SN12C renal
[47] = system: SNB-19 CNS
[48] = system: SNB-75 CNS
[49] = system: SR leukemia
[50] = system: SW-620 colon
[51] = system: T-47D breast
[52] = system: U251 CNS
[53] = system: UACC-257 melanoma
[54] = system: UACC-62 melanoma
[55] = system: HOP-92 NSCLC
[56] = system: OVCAR-3 ovarian
[57] = system: TK-10 renal
[58] = system: UO-31 renal
[59] = system: BT-549 breast

Measured: TGI

CC(=O)N=C1N(/C=C2\C(=O)Oc3ccccc3C2=O)C(=O)/C(=C/c2ccccc2Cl)N1C
34.9 µM: [15]
96.7 µM: [2]
not listed: [55] | [56] | [57] | [58] | [59]
> 100 µM: all other assays above

COC(=O)c1c2c(cc3c1CC1(Cc4cc5c(cc4C1)CCC5)C3)CCC2
not listed: [7] | [19] | [28] | [46] | [54] | [59]
> 100 µM: all other assays above

CCN(CC)CCCC(C)Nc1cc(/C=C/c2ccc(Cl)cc2)nc2cc(N(C)C)ccc12 (stereo not given)
2.65 µM: [16]
3.55 µM: [51] | [58]
2.69 µM: [50]
3.4 µM: [14]
3.34 µM: [9]
3.37 µM: [34]
3.01 µM: [59] | [26] | [27]
3.06 µM: [25] | [38]
4.65 µM: [41]
4.34 µM: [44]
3.41 µM: [35]
3.33 µM: [40]
6.54 µM: [54]
3.57 µM: [10]
4.42 µM: [4]
2.78 µM: [36]
3.16 µM: [55]
3.09 µM: [21]
2.85 µM: [49]
3.17 µM: [12]
11.6 µM: [28]
3.26 µM: [19]
3.12 µM: [2]
3.3 µM: [47]
3.19 µM: [52]
3.25 µM: [46]
3.54 µM: [13] | [57]
2.49 µM: [11]
3.21 µM: [8]
3.49 µM: [56]
3.39 µM: [23]

CCOC(=O)NC(=S)c1ccc(O)c2ccccc12
46.7 µM: [6]
95.2 µM: [59]
39.9 µM: [13]
49.1 µM: [17]
not listed: [24] | [28] | [38] | [46] | [48] | [55] | [57]
> 100 µM: all other assays above
